Usually Kd stands for the constant that tells how readily two partners part at equilibrium.

This is an account of results in patent US10551379B2, “Methods and compositions for improving detection and/or capture of a target entity” (PRESIDENT AND FELLOWS OF HARVARD COLLEGE, priority 2013, dated 2020).

The target of test [1] is T1, FcMBL (Homo sapiens, UniProt P11226). Briefly: FcMBL ELISA capture in blood: background and haemocyte binding (FIGS. 3A-3B). Conditions: for background of the FcMBL ELISA: ligand added to FcMBL prior to the capture of mannan in the presence of blood. Here is the method:
FIGS. 3A-3B are data graphs showing effects of adding a blocking agent (e.g., ˜10 mM glucose) on binding of a target entity (e.g., LPS) or an interfering agent (e.g., haemocytes) to a target-binding agent (e.g., FcMBL beads) in donor blood.
(§1) Without wishing to be bound by theory, this reduced background can be related to the prevention of FcMBL low affinity binding to erythrocytes (or other endogenous components in blood) by the medium affinity sugar that in turn can be displaced by the higher affinity targets such as mannan, lipopolysaccharides (LPS), and/or a microbe or fragment thereof.
On the technique in general: An ELISA detects its analyte on a solid surface through an enzyme-linked reagent.

Test [2] deals with T1, FcMBL. Briefly: Binding affinity (Kd) of medium affinity ligands for FcMBL. Particulars: read-out: Kd (medium affinity ligand of FcMBL).
Excerpt: as §1

T1 sequence (P11226 with tags, fused parts or gaps limits assumed): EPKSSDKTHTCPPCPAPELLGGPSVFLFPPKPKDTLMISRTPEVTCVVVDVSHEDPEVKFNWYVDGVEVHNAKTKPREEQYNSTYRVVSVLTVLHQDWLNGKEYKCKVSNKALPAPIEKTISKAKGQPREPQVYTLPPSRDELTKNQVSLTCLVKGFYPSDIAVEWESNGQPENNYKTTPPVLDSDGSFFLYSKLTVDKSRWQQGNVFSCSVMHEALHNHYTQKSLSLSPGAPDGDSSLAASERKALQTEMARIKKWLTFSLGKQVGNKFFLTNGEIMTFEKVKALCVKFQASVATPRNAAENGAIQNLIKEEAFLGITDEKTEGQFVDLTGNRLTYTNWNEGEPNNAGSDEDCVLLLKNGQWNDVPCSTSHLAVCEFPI

For the compound mannan, the “background by binding of erythrocytes or other endogenous blood components to FcMBL” value on FcMBL [1] (addition of a small amount of mannan) was “decrease the background”.
Consider `CC(=O)N[C@H]1C(O)O[C@H](CO)[C@@H](O)[C@@H]1O[C@H](C)C(=O)O` (some centres unmarked) [N-acetyl Muramic acid], for which the “background of the FcMBL ELISA” value on FcMBL [1] is “decreases the background”. Also, the Kd on FcMBL [2] was found to be 17 mM.
For the compound `OC[C@H]1O[C@H](O[C@H]2[C@H](O)[C@@H](O)C(O)O[C@@H]2CO)[C@H](O)[C@@H](O)[C@@H]1O` (mixture of isomers) [maltose], the “background of the FcMBL ELISA” value at FcMBL [1] is on record as “decreases the background”. Moreover, the Kd at FcMBL [2] was found to be 15 mM.
